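How tested: cells in 96-well plates exposed to compound for 48 hours at five concentrations. GI50: concentration for 50% inhibition of growth.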 Calls of active or inactive are those of the source. No stated cut-off is given here; in the data, active = GI50 up to about 1.1 µM and inactive = higher.
Columns and labels:
Test in all cases: NCI-60 cell line screen, 48 h
SW-620 = test system: SW-620
HCC 2998 = test system: HCC 2998
A498 = test system: A498
NCI-H23 = test system: NCI-H23
SK-MEL-2 = test system: SK-MEL-2
HOP-92 = test system: HOP-92
SR = test system: SR
IGROV-1 = test system: IGROV-1
HOP-62 = test system: HOP-62
SNB-19 = test system: SNB-19
NCI-H226 = test system: NCI-H226
SNB-75 = test system: SNB-75
UO-31 = test system: UO-31
NCI-H460 = test system: NCI-H460
M19-MEL = test system: M19-MEL
M14 = test system: M14
OVCAR-5 = test system: OVCAR-5
ACHN = test system: ACHN
DMS-273 = test system: DMS-273
LXFL 529 = test system: LXFL 529
OVCAR-3 = test system: OVCAR-3
RXF 393 = test system: RXF 393
Malme-3M = test system: Malme-3M
COLO 205 = test system: COLO 205
MOLT-4 = test system: MOLT-4
U-251 = test system: U-251
SK-OV-3 = test system: SK-OV-3
UACC-62 = test system: UACC-62
K562 = test system: K562
SF-268 = test system: SF-268
EKVX = test system: EKVX
HT-29 = test system: HT-29
HCT-116 = test system: HCT-116
SK-MEL-28 = test system: SK-MEL-28
SF-539 = test system: SF-539
OVCAR-8 = test system: OVCAR-8
HL-60 = test system: HL-60
KM-20L2 = test system: KM-20L2
UACC-257 = test system: UACC-257
LOX IMVI = test system: LOX IMVI
DMS-114 = test system: DMS-114
SF-295 = test system: SF-295
SNB-78 = test system: SNB-78
SK-MEL-5 = test system: SK-MEL-5
RPMI-8226 = test system: RPMI-8226
A549 = test system: A549
NCI-H522 = test system: NCI-H522
HOP-18 = test system: HOP-18
SN12C = test system: SN12C
CCRF-CEM = test system: CCRF-CEM
CAKI-1 = test system: CAKI-1
TK-10 = test system: TK-10
KM12 = test system: KM12
HCT-15 = test system: HCT-15
786-0 = test system: 786-0
OVCAR-4 = test system: OVCAR-4
DLD-1 = test system: DLD-1
Hs-578T = test system: Hs-578T
MDA-N = test system: MDA-N
BT-549 = test system: BT-549
T47D = test system: T47D
NCI/ADR-RES = test system: NCI/ADR-RES
PC-3 = test system: PC-3
MDA-MB-435 = test system: MDA-MB-435
XF498 = test system: XF498
DU-145 = test system: DU-145
MCF7 = test system: MCF7
MDA-MB-231 = test system: MDA-MB-231

Measured: GI50

O=C(Nc1nccs1)c1cc(C2=CC=CC([N+](=O)[O-])C=C2)nc(S)n1 (stereo unspecified)
inactive: SW-620 > 100 µM | HCC 2998 > 100 µM | A498 > 100 µM | NCI-H23 > 100 µM | SK-MEL-2 > 100 µM | HOP-92 > 100 µM | SR > 100 µM | IGROV-1 > 100 µM | HOP-62 > 100 µM | SNB-19 > 100 µM | NCI-H226 > 100 µM | SNB-75 > 100 µM | UO-31 > 100 µM | NCI-H460 > 100 µM | M19-MEL > 100 µM | M14 > 100 µM | OVCAR-5 > 100 µM | ACHN > 100 µM | DMS-273 > 100 µM | LXFL 529 > 100 µM | OVCAR-3 > 100 µM | RXF 393 > 100 µM | Malme-3M > 100 µM | COLO 205 > 100 µM | MOLT-4 > 100 µM | U-251 > 100 µM | SK-OV-3 > 100 µM | UACC-62 > 100 µM | K562 > 100 µM | SF-268 > 100 µM | EKVX > 100 µM | HT-29 > 100 µM | HCT-116 > 100 µM | SK-MEL-28 > 100 µM | SF-539 > 100 µM | OVCAR-8 > 100 µM | HL-60 > 100 µM | KM-20L2 > 100 µM | UACC-257 > 100 µM | LOX IMVI > 100 µM | DMS-114 > 100 µM | SF-295 > 100 µM | SNB-78 > 100 µM | SK-MEL-5 > 100 µM | RPMI-8226 > 100 µM | A549 > 100 µM | NCI-H522 > 100 µM | HOP-18 > 100 µM | SN12C > 100 µM | CCRF-CEM > 100 µM | CAKI-1 > 100 µM | TK-10 > 100 µM | KM12 > 100 µM | 786-0 > 100 µM
> 100 µM: HCT-15

Cc1ccc(NC(=O)C2C(=O)C(=O)N(c3ccc(C)cc3)C2=O)cc1 (stereo unspecified)
inactive: OVCAR-4 > 100 µM | SW-620 > 100 µM | HCC 2998 > 100 µM | A498 > 100 µM | NCI-H23 > 100 µM | SK-MEL-2 > 100 µM | HOP-92 > 100 µM | SR > 100 µM | IGROV-1 > 100 µM | HOP-62 93.3 µM | SNB-19 > 100 µM | UO-31 > 100 µM | NCI-H460 > 100 µM | M19-MEL > 100 µM | M14 > 100 µM | OVCAR-5 > 100 µM | ACHN > 100 µM | LXFL 529 > 100 µM | RXF 393 72.1 µM | Malme-3M > 100 µM | COLO 205 > 100 µM | MOLT-4 > 100 µM | U-251 99.3 µM | UACC-62 > 100 µM | K562 > 100 µM | SF-268 > 100 µM | EKVX > 100 µM | HT-29 > 100 µM | HCT-116 > 100 µM | SK-MEL-28 > 10 µM | SF-539 > 100 µM | OVCAR-8 > 100 µM | HL-60 > 100 µM | KM-20L2 > 100 µM | UACC-257 > 100 µM | DMS-114 > 100 µM | SF-295 > 100 µM | SNB-78 > 100 µM | SK-MEL-5 > 100 µM | A549 > 100 µM | NCI-H522 > 100 µM | HOP-18 > 100 µM | SN12C > 100 µM | CCRF-CEM > 100 µM | DLD-1 > 100 µM | TK-10 > 100 µM | KM12 > 100 µM | 786-0 > 100 µM
> 100 µM: HCT-15

Oc1cccc(-c2cc(O)c3cc4c(cc3n2)OCO4)c1
active: SK-MEL-2 0.851 µM | SR 0.283 µM | SNB-75 0.379 µM | Hs-578T 0.457 µM | MDA-N 0.231 µM | BT-549 0.867 µM | DMS-273 1.09 µM | OVCAR-3 0.193 µM | Malme-3M 0.352 µM | K562 0.505 µM | MDA-MB-435 0.277 µM | DU-145 0.302 µM | DMS-114 0.721 µM | SNB-78 1.03 µM | NCI-H522 0.284 µM | CCRF-CEM 0.54 µM | KM12 0.561 µM
2.74 µM: HCT-15
inactive: OVCAR-4 > 100 µM | SW-620 3.21 µM | HCC 2998 4.28 µM | A498 41.8 µM | NCI-H23 4.3 µM | IGROV-1 4.98 µM | HOP-62 1.6 µM | SNB-19 3.84 µM | NCI-H226 2.9 µM | UO-31 4.23 µM | NCI-H460 17.8 µM | M19-MEL 1.49 µM | M14 3.58 µM | OVCAR-5 > 100 µM | ACHN 5.85 µM | T47D 23.7 µM | LXFL 529 1.87 µM | RXF 393 1.67 µM | COLO 205 2.68 µM | NCI/ADR-RES 1.31 µM | MOLT-4 3.77 µM | U-251 1.43 µM | SK-OV-3 1.41 µM | UACC-62 2.42 µM | SF-268 1.71 µM | HT-29 3.37 µM | HCT-116 1.43 µM | SK-MEL-28 2.81 µM | SF-539 1.7 µM | PC-3 1.55 µM | OVCAR-8 2.85 µM | HL-60 1.26 µM | XF498 7.26 µM | UACC-257 > 26.1 µM | LOX IMVI 4.98 µM | SF-295 5.74 µM | MCF7 3.1 µM | SK-MEL-5 1.46 µM | RPMI-8226 4.03 µM | A549 5.27 µM | HOP-18 > 100 µM | SN12C 3.03 µM | DLD-1 3.43 µM | MDA-MB-231 1.92 µM | TK-10 13.2 µM | 786-0 5.52 µM

Nc1cccc(-c2cc(O)c3cc4c(cc3n2)OCO4)c1
1.23 µM: HCT-15
inactive: OVCAR-4 > 61.9 µM | HCC 2998 1.83 µM | A498 2.45 µM | NCI-H23 2.86 µM | HOP-62 1.87 µM | SNB-19 2.19 µM | NCI-H226 1.85 µM | UO-31 12.5 µM | NCI-H460 4.28 µM | OVCAR-5 > 100 µM | BT-549 > 100 µM | ACHN 3.87 µM | T47D > 100 µM | MOLT-4 2.07 µM | U-251 1.81 µM | SK-OV-3 1.28 µM | SF-268 1.77 µM | EKVX 3.27 µM | HT-29 1.74 µM | SK-MEL-28 2.19 µM | OVCAR-8 2.11 µM | HL-60 1.93 µM | XF498 7.26 µM | LOX IMVI 1.23 µM | SF-295 2.87 µM | RPMI-8226 6.35 µM | A549 4.09 µM | HOP-18 40.2 µM | SN12C 4.59 µM | CAKI-1 3.68 µM | MDA-MB-231 1.73 µM | TK-10 6.64 µM | 786-0 2.16 µM
active: SW-620 0.519 µM | SK-MEL-2 0.45 µM | HOP-92 1.02 µM | SR 0.191 µM | SNB-75 0.0995 µM | Hs-578T 0.389 µM | MDA-N 0.216 µM | M19-MEL 0.931 µM | M14 0.993 µM | DMS-273 0.889 µM | LXFL 529 0.527 µM | OVCAR-3 0.188 µM | RXF 393 1.02 µM | Malme-3M 0.318 µM | COLO 205 0.384 µM | NCI/ADR-RES 0.581 µM | UACC-62 0.402 µM | K562 0.792 µM | HCT-116 0.389 µM | SF-539 0.544 µM | PC-3 0.644 µM | MDA-MB-435 0.16 µM | DU-145 0.64 µM | SNB-78 0.834 µM | MCF7 0.592 µM | SK-MEL-5 0.427 µM | NCI-H522 0.273 µM | CCRF-CEM 0.665 µM | KM12 0.593 µM

— ChEMBL document CHEMBL1201862, “PubChem BioAssay data set” (2004)
